In brackets after ≈: the same amount, converted by molar mass. Like-named read-outs stand apart in the source and are kept apart here.
Legend:
[1] = test system: klebsila pneumonia ATCC700603; assay: Turbidity assay; assay type: cell-based
Candida albicans EMCC105 [2] = assay: Agar well diffusion assay; assay type: cell-based
BetaCoV E-gene = assay type: cell-based, SARS-CoV2
[3] = test system: Streptococcus pyogenes EMCC1772; assay: Agar well diffusion assay; assay type: cell-based
[4] = test system: Staphylococcus aureus ATCC25923; assay: Turbidity assay; assay type: cell-based
[5] = test system: Staphylococcus aureus ATCC25923; assay: Agar well diffusion assay; assay type: cell-based
[6] = test system: Streptococcus pyogenes EMCC1772; assay: Turbidity assay; assay type: cell-based
[7] = test system: Peripheral blood mononuclear cells (PBMC); assay: Peripheral blood mononuclear cells toxicity; assay type: cell-based; conditions: Homo sapiens, 24 h, read-out: PBMC IC50 (µg/ml)
red blood cells = assay: Elimination of HCQ toxicity: HCQ induced RBC hemolysis; conditions: HCQ 27.5 µg/ml
ACE2 protein = ACE2 protein (Homo sapiens, UniProt Q9BYF1); assay: ACE2 binding
Sequence of ACE2 protein (Q9BYF1 18-805): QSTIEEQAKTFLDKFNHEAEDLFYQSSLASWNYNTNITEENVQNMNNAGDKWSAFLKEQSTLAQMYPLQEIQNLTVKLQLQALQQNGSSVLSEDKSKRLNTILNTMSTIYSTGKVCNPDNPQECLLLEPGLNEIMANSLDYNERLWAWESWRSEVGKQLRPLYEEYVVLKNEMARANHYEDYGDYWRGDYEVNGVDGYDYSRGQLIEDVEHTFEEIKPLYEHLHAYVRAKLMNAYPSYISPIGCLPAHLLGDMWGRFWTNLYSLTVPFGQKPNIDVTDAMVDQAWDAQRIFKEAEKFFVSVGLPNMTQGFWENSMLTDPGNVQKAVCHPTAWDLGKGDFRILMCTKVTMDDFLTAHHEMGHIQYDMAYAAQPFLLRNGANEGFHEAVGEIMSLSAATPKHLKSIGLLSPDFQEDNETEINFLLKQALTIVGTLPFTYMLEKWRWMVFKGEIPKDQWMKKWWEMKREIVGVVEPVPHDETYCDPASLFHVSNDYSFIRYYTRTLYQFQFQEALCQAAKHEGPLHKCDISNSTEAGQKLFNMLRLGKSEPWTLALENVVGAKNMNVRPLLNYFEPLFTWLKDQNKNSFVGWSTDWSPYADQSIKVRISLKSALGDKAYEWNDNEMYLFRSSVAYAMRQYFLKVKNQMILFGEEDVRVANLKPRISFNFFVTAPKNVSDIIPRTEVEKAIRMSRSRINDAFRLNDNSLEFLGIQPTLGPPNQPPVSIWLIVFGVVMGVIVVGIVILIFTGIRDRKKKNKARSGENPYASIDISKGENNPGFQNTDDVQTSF

Candida albicans EMCC105 [8] = assay: Turbidity assay; assay type: cell-based
[9] = target: papain-like proteinase (PLpro) (Severe acute respiratory syndrome coronavirus 2, UniProt P0DTD1); assay: Papain-like proteinase; assay type: biochemical, SARS-CoV2; conditions: read-out: PLpro (Inhibition %)
SARS-CoV2 = assay: microbe, parasite or virus in culture; assay type: cell-based; conditions: for EC50: Severe acute respiratory syndrome coronavirus 2, Vero C1008
[10] = test system: klebsila pneumonia ATCC700603; assay: Agar well diffusion assay; assay type: cell-based
human red blood cells = assay: Red blood cells toxicity; assay type: cell-based; conditions: Erythrocyte, 1 h, read-out: RBC IC50 (µg/ml)
[11] = target: SARS-CoV2 RBD / ACE2 protein complex (Severe acute respiratory syndrome coronavirus 2, UniProt P0DTC2); assay: Spike protein RBD-ACE2 complex formation ELISA; assay type: binding
SARS-CoV2 ORF gene = assay type: cell-based
BetaCoV RdRp gene = assay type: cell-based, SARS-CoV2
white blood cells (WBC) = assay: Elimination of HCQ toxicity: HCQ induced WBC cytotoxicity; assay type: cell-based; conditions: HCQ 200 µg/ml
[12] = In vivo HCQ toxicity elimination: CBC profile and blood chemistry; conditions: mice, oral
[13] = ref Zou et al. [2020], cited from earlier work
Antioxidant activity = conditions: DPPH, 30 min in the dark

COc1ccc2cc3[n+](cc2c1OC)CCc1cc2c(cc1-3)OCO2 [BER, Berberine chloride hydrate]
MIC [1]: 463 mg/L | MIC (Candida albicans EMCC105 [2]): 1850 mg/L | E-gene down regulation (%) (BetaCoV E-gene; 2.5 µg/ml): 89.77 ± 3.5% | E-gene expression (BetaCoV E-gene; 2.5 µg/ml): 0.102 ± 0.0003 | E-gene down regulation (%) (BetaCoV E-gene; 5 µg/ml): 99.30 ± 1.8% | E-gene expression (BetaCoV E-gene; 5 µg/ml): 0.007 ± 0.0005 | E-gene down regulation (%) (BetaCoV E-gene; 10 µg/ml): 99.70 ± 4.5% | E-gene expression (BetaCoV E-gene; 10 µg/ml): 0.003 ± 0.0001 | E-gene down regulation (%) (BetaCoV E-gene; 20 µg/ml): 99.98 ± 3.9% | E-gene expression (BetaCoV E-gene; 20 µg/ml): 0.0002 ± 0.00001 | MIC [3]: 463 mg/L | MIC [4]: 463 mg/L | MIC [5]: 926 mg/L | MIC [6]: 463 mg/L | IC50 [7]: 22.2 ± 0.9 µg/mL | decrease of the hemolytic activity induced by HCQ (red blood cells): 42.85% | ACE2 (Binding %) (ACE2 protein; 62.5 µg/ml): 13.10 ± 0.07% | ACE2 (Binding %) (ACE2 protein; 126 µg/ml): 13.10 ± 0.90% | ACE2 (Binding %) (ACE2 protein; 252 µg/ml): 13.90 ± 1.10% | ACE2 (Binding %) (ACE2 protein; 504 µg/ml): 15.60 ± 1.60% | ACE2 (Binding %) (ACE2 protein; 1008 µg/ml): 15.60 ± 1.10% | MIC (Candida albicans EMCC105 [8]): 463 mg/L | inhibition at 62.5 µg/mL [9]: 49.8 ± 0.19% | inhibition at 126 µg/mL [9]: 65.89 ± 0.17% | inhibition at 252 µg/mL [9]: 78.93 ± 0.36% | inhibition at 504 µg/mL [9]: 84.8 ± 0.12% | inhibition at 1008 µg/mL [9]: 93.26 ± 0.73% | Vero E6 reduction (%) (SARS-CoV2): 80.00 ± 1.7% | EC50 (SARS-CoV2): 16.7 ± 0.01 mg/L | EC50/IC50% (SARS-CoV2; antiviral EC50 relative to Vero E6 IC50): 32.9 ± 0.4% | MIC [10]: 1850 mg/L | IC50 (human red blood cells): 1349 ± 10.3 µg/mL | Spike protein- RBD- complex formation (Fold change) ([11]; 62.5 µg/ml): 03.88 ± 0.08 Fold change | Spike protein- RBD- complex formation (Fold change) ([11]; 126 µg/ml): 08.00 ± 0.10 Fold change | Spike protein- RBD- complex formation (Fold change) ([11]; 252 µg/ml): 08.50 ± 0.00 Fold change | Spike protein- RBD- complex formation (Fold change) ([11]; 504 µg/ml): 16.13 ± 0.20 Fold change | Spike protein- RBD- complex formation (Fold change) ([11]; 1008 µg/ml): 16.13 ± 0.03 Fold change | ORF gene down regulation (%) (SARS-CoV2 ORF gene; 2.5 µg/ml): 11.73 ± 0.1% | ORF gene expression (SARS-CoV2 ORF gene; 2.5 µg/ml): 0.88 ± 0.001 | ORF gene down regulation (%) (SARS-CoV2 ORF gene; 5 µg/ml): 21.54 ± 0.2% | ORF gene expression (SARS-CoV2 ORF gene; 5 µg/ml): 0.79 ± 0.003 | ORF gene down regulation (%) (SARS-CoV2 ORF gene; 10 µg/ml): 60.22 ± 0.8% | ORF gene expression (SARS-CoV2 ORF gene; 10 µg/ml): 0.39 ± 0.002 | ORF gene down regulation (%) (SARS-CoV2 ORF gene; 20 µg/ml): 86.69 ± 0.1% | ORF gene expression (SARS-CoV2 ORF gene; 20 µg/ml): 0.13 ± 0.008 | RdRp down regulation (%) (BetaCoV RdRp gene; 2.5 µg/ml): 76.67 ± 2.9% | RdRp expression (BetaCoV RdRp gene; 2.5 µg/ml): 0.233 ± 0.001 | RdRp down regulation (%) (BetaCoV RdRp gene; 5 µg/ml): 79.26 ± 3.5% | RdRp expression (BetaCoV RdRp gene; 5 µg/ml): 0.207 ± 0.002 | RdRp down regulation (%) (BetaCoV RdRp gene; 10 µg/ml): 94.95 ± 6.9% | RdRp expression (BetaCoV RdRp gene; 10 µg/ml): 0.050 ± 0.0003 | RdRp down regulation (%) (BetaCoV RdRp gene; 20 µg/ml): 99.89 ± 3.8% | RdRp expression (BetaCoV RdRp gene; 20 µg/ml): 0.001 ± 0.00009 | prevention of HCQ cytotoxic effect towards WBC (white blood cells (WBC)): ~6.7 folds | prevention of HCQ adverse effect on co-administration with HCQ ([12]; blood chemistry): moderately prevented | effect on normal CBC parameters ([12]; p < 0.05): did not affect normal CBC parameters

CCN(CCO)CCCC(C)Nc1ccnc2cc(Cl)ccc12 (stereo not drawn) [HCQ, hydroxychloroquine]
oral dose reaching the blood ([13]; oral): about 50% | accumulation in brain and spinal cord tissue, times higher than plasma level [13]: 30 times | accumulation in the liver and lung, times higher than plasma concentration [13]: 700 times | IC50 [7]: 3.2 ± 0.3 µg/mL (≈ 9.53 µM) | ACE2 (Binding %) (ACE2 protein; 12.5 µg/ml): 09.02 ± 0.50% | ACE2 (Binding %) (ACE2 protein; 200 µg/ml): 15.60 ± 1.40% | Antioxidants IC50 (Antioxidant activity): 362.7 ± 6.7 mg/L | inhibition at 12.5 µg/mL [9]: 8.1 ± 0.74% | inhibition at 25 µg/mL [9]: 11.2 ± 0.39% | inhibition at 50 µg/mL [9]: 22.5 ± 0.15% | inhibition at 100 µg/mL [9]: 30 ± 0.23% | inhibition at 200 µg/mL [9]: 37 ± 0.42% | EC50/IC50% (SARS-CoV2): 27.5 ± 0.9% | Vero E6 reduction (%) (SARS-CoV2): 76.00 ± 1.8% | EC50 (SARS-CoV2): 0.39 ± 0.009 mg/L (≈ 1.16 µM) | IC50 (human red blood cells): 52 ± 0.9 µg/mL (≈ 155 µM)

— PMC8419391 (Journal of Pharmaceutical Investigation, 2021)
